Measured values published in US20220002268A1, “NOVEL HETEROARYL-TRIAZOLE AND HETEROARYL-TETRAZOLE COMPOUNDS AS PESTICIDES” (Bayer Aktiengesellschaft, priority 2019, published 2022).

What was measured:
[1] = test system: Tetranychus urticae; assay: Tetranychus urticae spray test OP-resistant; format: in vivo; settings: 144 h, after 6 days
Protocol: Tetranychus urticae—Spray Test OP-Resistant Solvent: 78.0 parts by weight acetone • 1.5 parts by weight dimethylformamide Emulsifier: alkylarylpolyglycol ether
(§1) To produce a suitable preparation of active compound, 1 part by weight of active compound is mixed with the stated amount of solvents and is diluted with water, containing an emulsifier concentration of 1000 ppm, to the desired concentration. Further test concentrations are prepared by dilution with emulsifier containing water.
French bean (Phaseolus vulgaris) leaf disks infected with all instars of the two spotted spidermite (Tetranychus urticae), are sprayed with a preparation of the active ingredient of the desired concentration.
After 6 days mortality in % is determined. 100% means all spider mites have been killed and 0% means none of the spider mites have been killed.

[2] = log P by HPLC on reversed phase, acidic range; format: physicochemical; settings: reversed phase HPLC column, LC-UV, 0.1% formic acid in water and acetonitrile
Protocol: (§2) Measurement of log P values was performed according to EEC directive 79/831 Annex V.A8 by HPLC (High Performance Liquid Chromatography) on reversed phase columns with the following methods. […] Calibration was done with straight-chain alkan-2-ones (with 3 to 16 carbon atoms) with known log P values (measurement of log P values using retention times with linear interpolation between successive alkanones). Lambda-max-values were determined using UV-spectra from 200 nm to 400 nm and the peak values of the chromatographic signals.

[3] = log P by HPLC on reversed phase, neutral range; format: physicochemical; settings: reversed phase HPLC column, LC-UV, 0.001 molar ammonium acetate solution in water and acetonitrile
Protocol: as §2, with “methods. Instrument(s): Agilent 1100 LC system, Agilent MSD system, HTS PAL; Waters IClass Acquity UPLC, SQD2 (MS), PDA (UV).” for “methods.”

[4] = test system: Ctenocephalides felis; assay: Ctenocephalides felis oral test; format: in vivo; settings: 48 h, 100 ppm in cattle blood, after 2 days
Protocol: Ctenocephalides felis—Oral Test Solvent: dimethyl sulfoxide
To produce a suitable preparation of active compound, 10 mg of active compound are dissolved in 0.5 ml solvent, and the concentrate is diluted with cattle blood to the desired concentration.
Approximately 20 adult unfed cat fleas (Ctenocephalides felis) are placed in flea chambers. The blood chamber, sealed with parafilm on the bottom, are filled with cattle blood supplied with compound solution and placed on the gauze covered top of the flea chamber, so that the fleas are able to suck the blood. The blood chamber is heated to 37° C. whereas the flea chamber is kept at room temperature.
After 2 days mortality in % is determined. 100% means all the fleas have been killed; 0% means none of the fleas have been killed.

[5] = test system: Myzus persicae; assay: Myzus persicae oral test; format: in vivo; settings: 120 h, after 5 days
Protocol: Myzus persicae—Oral Test Solvent: 100 parts by weight acetone
(§3) To produce a suitable preparation of active compound, 1 part by weight of active compound is mixed with the stated amount of solvent, and the concentrate is diluted with water to the desired concentration.
50 μl compound solution is filled in microtiter plates and 150 μl IPL41 insect medium (33%+15% sugar) is added to obtain a total volume of 200 μl per well. Afterwards the plates are sealed with parafilm through which a mixed population of the green peach aphid (Myzus persicae) can suck on the compound preparation.
After 5 days mortality in % is determined. 100% means all aphids have been killed and 0% means none of the aphids have been killed.

[6] = test system: Meloidogyne incognita; assay: Meloidogyne incognita test; format: in vivo; settings: 20 ppm, after 14 days
Protocol: Meloidogyne incognita—Test Solvent: 125.0 parts by weight of acetone
as §3
Vessels are filled with sand, a solution of the active ingredient, a suspension containing eggs and larvae of the southern root-knot nematode (Meloidogyne incognita) and salad seeds. The salad seeds germinate and the seedlings grow. Galls develop in the roots.
After 14 days the nematicidal activity is determined on the basis of the percentage of gall formation. 100% means no galls were found and 0% means the number of galls found on the roots of the treated plants was equal to that in untreated control plants.

[7] = test system: Phaedon cochleariae; assay: Phaedon cochleariae spray test; format: in vivo; settings: 168 h, after 7 days
Protocol: Phaedon cochleariae—Spray Test Solvent: 78.0 parts by weight of acetone • • 1.5 parts by weight of dimethylformamide Emulsifier: alkylarylpolyglycol ether
as §1
Chinese cabbage (Brassica pekinensis) leaf disks are sprayed with a preparation of the active ingredient of the desired concentration. Once dry, the leaf disks are infested with mustard beetle larvae (Phaedon cochleariae).
After 7 days mortality in % is determined. 100% means all beetle larvae have been killed and 0% means none of the beetle larvae have been killed.

[8] = test system: Boophilus microplus; assay: Boophilus microplus injection test; format: in vivo; settings: Rhipicephalus microplus, 168 h; 20 gg/animal, injection into abdomen, after 7 days; read-out: efficacy (infertile eggs)
Protocol: Boophilus microplus—Injection Test Solvent: dimethyl sulfoxide To produce a suitable preparation of active compound, 10 mg of active compound are dissolved in 0.5 ml solvent, and the concentrate is diluted with solvent to the desired concentration. Five adult engorged female ticks (Boophilus microplus) are injected with 1 μl compound solution into the abdomen. The ticks are transferred into replica plates and incubated in a climate chamber. After 7 days egg deposition of fertile eggs is monitored. Eggs where fertility is not visible are stored in a climate chamber till hatching after about 42 days. An efficacy of 100% means all eggs are infertile; 0% means all eggs are fertile.

[9] = test system: Spodoptera frugiperda; assay: Spodoptera frugiperda spray test; format: in vivo; settings: 168 h, after 7 days
Protocol: Suodontera frugiuerda—Spray Test Solvent: 78.0 parts by weight acetone • 1.5 parts by weight dimethylformamide Emulsifier: alkylarylpolyglycol ether
as §1
Maize (Zea mays) leaf sections are sprayed with a preparation of the active ingredient of the desired concentration. Once dry, the leaf sections are infested with fall armyworm larvae (Spodoptera frugiperda).
After 7 days mortality in % is determined. 100% means all caterpillars have been killed and 0% means none of the caterpillars have been killed.

[10] = test system: Diabrotica balteata; assay: Diabrotica balteata spray test; format: in vivo; settings: 168 h, 160 gg/well, after 7 days, read-out: efficacy (seedlings grown)
Protocol: Diabrotica balteata—Spray Test Solvent: 78.0 parts by weight of acetone • • 1.5 parts by weight of dimethylformamide Emulsifier: alkylarylpolyglycol ether
as §1, with “solvent,” for “solvents”, “and the concentrate” for “and”
Soaked wheat seeds (Triticum aestivum) are placed in a multiple well plate filled with agar and some water and are incubated for 1 day to germinate (5 seeds per well). The germinated wheat seeds are sprayed with a test solution containing the desired concentration of the active ingredient. Afterwards each unit is infected with 10-20 larvae of the banded cucumber beetle (Diabrotica balteata).
After 7 days efficacy in % is determined. 100% means all the seedlings have grown up like in the untreated, uninfected control; 0% means none of the seedlings have grown.

[11] = test system: Nilaparvata lugens; assay: Nilaparvata lugens spray test; format: in vivo; settings: 96 h, after 4 days
Protocol: Nilaparvata lugens—Spray Test Solvent: 78.0 parts by weight of acetone • • 1.5 parts by weight of dimethylformamide Emulsifier: alkylarylpolyglycol ether
as §1
Rice plants (Oryza sativa) are sprayed with a preparation of the active ingredient of the desired concentration and the plants are infested with the brown planthopper (Nilaparvata lugens).
After 4 days mortality in % is determined. 100% means all planthoppers have been killed and 0% means none of the planthoppers have been killed.

[12] = test system: Nezara viridula; assay: Nezara viridula spray test; format: in vivo; settings: 96 h, after 4 days
Protocol: Nezara viridula—Spray Test Solvent: 78.0 parts by weight of acetone • • 1.5 parts by weight of dimethylformamide Emulsifier: alkylarylpolyglycol ether
as §1, with “solvent,” for “solvents”, “and the concentrate” for “and”
Barley plants (Hordeum vulgare) infested with larvae of the southern green stink bug (Nezara viridula) are sprayed with a test solution containing the desired concentration of the active ingredient.
After 4 days mortality in % is determined. 100% means all the stink bugs have been killed; 0% means none of the stink bugs have been killed.

[13] = test system: Aedes aegypti strain MONHEIM; assay: Aedes aegypti test (AEDSAE surface treatment & contact assay); format: in vivo; settings: surface concentration 20 mg/m^2, 30 minutes exposure, 24 hours after contact, read-out: efficacy (mortality)
Protocol: Aedes aegyti Test (AEDSAE Surface Treatment & Contact Assay) Solvent: Aceton+2000 ppm rapeseed oil methyl ester (RME)
In order to produce a sufficient, active ingredient containing solution it is necessary to solve the test compound in the solvent-mix (acetone at 2 mg/ml/RME 2000 ppm). This solution is pipetted onto a glazed tile and after evaporation of the acetone, adult mosquitoes of the species Aedes aegypti strain MONHEIM are placed onto the dried surface. The exposure time is 30 minutes.
Mortality in percent (%) is determined 24 hours after contact to the treated surface. 100% mortality means that all tested insects are dead, whereas 0% means that no insect died.

Row | chromatographic logP [2] | chromatographic logP [3] | Compound | mortality at 500 g/ha [1] | mortality at 100 ppm [4] | mortality at 20 ppm [5] | nematicidal activity (gall formation) [6] | mortality at 500 g/ha [7] | pest or weed control at 0.02 mg [8] | mortality at 500 g/ha [9] | pest or weed control at 160 µg/well [10] | mortality at 500 g/ha [11] | mortality at 500 g/ha [12] | mortality at 20 mg/m2 [13]
1 | – | – | O=C(NC1(c2ncnn2-c2ncccn2)CC1)c1cc(Cl)cc(OC(F)(F)F)c1 [Example I-016] | 90% | – | – | – | – | – | – | – | – | – | –
2 | 0.83 | 0.83 | c1cnc(-n2ncnc2CNCC2CC2)nc1 [a-001, 1-cyclopropyl-N-{[1-(pyrimidin-2-yl)-1H-1,2,4-triazol-5-yl]methyl}methanamine] | – | – | – | – | – | – | – | – | – | – | –
3 | – | – | O=C(c1cc(Cl)cc(C(F)(F)F)c1)N(Cc1ncnn1-c1ncccn1)CC1CC1 [Example I-001, 3-Chloro-N-(cyclopropylmethyl)-N-{[1-(pyrimidin-2-yl)-1H-1,2,4-triazol-5-yl]methyl}-5-(trifluoromethyl)benzamide] | – | 95% | 100% | 90% | 100% | 100% | 100% | 100% | – | – | –
4 | – | – | O=C(c1cc(C(F)(F)F)cc(C(F)(F)F)c1)N(Cc1ncnn1-c1ncccn1)CC1CC1 [Example I-004] | – | 100% | 100% | – | 100% | 100% | 100% | 100% | 100% | 100% | 85 to 100%
